# Results as given in patent US11951109B2, “EZH2 inhibitors for treating lymphoma” (Epizyme, Inc., priority 2015, dated 2024).
# What was measured:
# [1] = test system: SU-DHL-6; experiment: Combination of EPZ-6438 and other therapeutic agents (4+3 model), SU-DHL-6; conditions: for combination effect with EPZ-6438, SU-DHL-6: Mutant EZH2 GCB
# [2] = test system: WSU-DLCL2; experiment: Combination of EPZ-6438 and other therapeutic agents (4+3 model), WSU-DLCL2; conditions: for combination effect with EPZ-6438, WSU-DLCL2: Mutant EZH2 GCB, EPZ-6438 4 days then co-treatment 3 days (4+3 model)
# [3] = test system: RC-K8; experiment: Combination of EPZ-6438 and other therapeutic agents (4+3 model), RC-K8; conditions: WT EXH2 ABC
# [4] = test system: SUDHL2; experiment: Combination of EPZ-6438 and other therapeutic agents (4+3 model), SUDHL2; conditions: WT EXH2 ABC
# [5] = test system: KARPAS-422; experiment: Combination of EPZ-6438 and other therapeutic agents (4+3 model), KARPAS-422; conditions: Mutant EZH2 GCB
# [6] = test system: OCI-LY19; experiment: Combination of EPZ-6438 and other therapeutic agents (4+3 model), OCI-LY19; conditions: WT EZH2 GCB; 4+3 model
# [7] = test system: Farage; experiment: Combination of EPZ-6438 and other therapeutic agents (4+3 model), Farage; conditions: WT EZH2 GCB
# [8] = test system: SU-DHL-10; experiment: Combination of EPZ-6438 and other therapeutic agents (4+3 model), SU-DHL-10; conditions: for combination effect with EPZ-6438, SU-DHL-10: Mutant EZH2 GCB
# [9] = test system: HT; experiment: Combination of EPZ-6438 and other therapeutic agents (4+3 model), HT; conditions: WT EZH2 GCB
# [10] = test system: TMD8; experiment: Combination of EPZ-6438 and other therapeutic agents (4+3 model), TMD8; conditions: WT EXH2 ABC
# [11] = test system: OCI-LY7; experiment: Combination of EPZ-6438 and other therapeutic agents (4+3 model), OCI-LY7; conditions: WT EZH2 GCB
# [12] = test system: SUDHL5; experiment: Combination of EPZ-6438 and other therapeutic agents (4+3 model), SUDHL5; conditions: WT EZH2 GCB
# [13] = test system: OCI-LY3; experiment: Combination of EPZ-6438 and other therapeutic agents (4+3 model), OCI-LY3; conditions: WT EXH2 ABC
# [14] = test system: DOHH2; experiment: Combination of EPZ-6438 and other therapeutic agents (4+3 model), DOHH2; type: cell-based
# [15] = test system: Toledo; conditions: Table 3; 4+3 model
compound,measurement,setting,value
Cc1sc2c(c1C)C(c1ccc(Cl)cc1)=N[C@@H](CC(=O)OC(C)(C)C)c1nnc(C)n1-2 [JQ1],"combination effect with EPZ-6438, SU-DHL-6",[1],S
same,"combination effect with EPZ-6438, WSU-DLCL2",[2],S
same,"combination effect with EPZ-6438, RC-K8",[3],S
same,"combination effect with EPZ-6438, SUDHL2",[4],S
same,"combination effect with EPZ-6438, KARPAS-422",[5],S
same,"combination effect with EPZ-6438, OCI-LY19",[6],S
NC1(c2ccc(-c3nc4ccn5c(=O)[nH]nc5c4cc3-c3ccccc3)cc2)CCC1 [MK-2206],"combination effect with EPZ-6438, SU-DHL-6",[1],S
same,"combination effect with EPZ-6438, Farage",[7],S
same,"combination effect with EPZ-6438, WSU-DLCL2",[2],S
same,"combination effect with EPZ-6438, SU-DHL-10",[8],S
same,"combination effect with EPZ-6438, HT",[9],S
same,"combination effect with EPZ-6438, RC-K8",[3],S
same,"combination effect with EPZ-6438, TMD8",[10],S
same,"combination effect with EPZ-6438, OCI-LY7",[11],S
same,"combination effect with EPZ-6438, KARPAS-422",[5],S
same,"combination effect with EPZ-6438, OCI-LY19",[6],S
same,"combination effect with EPZ-6438, SUDHL5",[12],S
same,"combination effect with EPZ-6438, OCI-LY3",[13],S
CN(Cc1cnc2nc(N)nc(N)c2n1)c1ccc(C(=O)N[C@@H](CCC(=O)O)C(=O)O)cc1 [Methotrexate],"combination effect with EPZ-6438, WSU-DLCL2",[2],ANTAG.
same,"combination effect with EPZ-6438, RC-K8",[3],ANTAG.
same,"combination effect with EPZ-6438, SUDHL2",[4],ANTAG.
same,"combination effect with EPZ-6438, OCI-LY19",[6],ANTAG.
same,"combination effect with EPZ-6438, DOHH2",[14]; WT EZH2 GCB,ANTAG.
CC1(C)CCC(c2ccc(Cl)cc2)=C(CN2CCN(c3ccc(C(=O)NS(=O)(=O)c4ccc(N[C@H](CCN5CCOCC5)CSc5ccccc5)c(S(=O)(=O)C(F)(F)F)c4)cc3)CC2)C1 [Navitoclax],"combination effect with EPZ-6438, SU-DHL-6",[1],S
same,"combination effect with EPZ-6438, WSU-DLCL2",[2],S
same,"combination effect with EPZ-6438, SU-DHL-10",[8],S
same,"combination effect with EPZ-6438, RC-K8",[3],S
same,"combination effect with EPZ-6438, OCI-LY7",[11],S
same,"combination effect with EPZ-6438, KARPAS-422",[5],S
same,"combination effect with EPZ-6438, OCI-LY19",[6],S
same,"combination effect with EPZ-6438, OCI-LY3",[13],S
COc1cc(Nc2ncc(F)c(Nc3ccc4c(n3)NC(=O)C(C)(C)O4)n2)cc(OC)c1OC [Tamatinib],"combination effect with EPZ-6438, SU-DHL-6",[1],S
same,"combination effect with EPZ-6438, Farage",[7],S
same,"combination effect with EPZ-6438, WSU-DLCL2",[2],S
same,"combination effect with EPZ-6438, SU-DHL-10",[8],S
same,"combination effect with EPZ-6438, HT",[9],S
same,"combination effect with EPZ-6438, TMD8",[10],S
same,"combination effect with EPZ-6438, SUDHL2",[4],S
same,"combination effect with EPZ-6438, OCI-LY7",[11],S
same,"combination effect with EPZ-6438, KARPAS-422",[5],S
same,"combination effect with EPZ-6438, SUDHL5",[12],S
same,"combination effect with EPZ-6438, OCI-LY3",[13],S
CC(=O)Nc1cccc(-n2c(=O)n(C3CC3)c(=O)c3c(Nc4ccc(I)cc4F)n(C)c(=O)c(C)c32)c1 [Trametinib],"combination effect with EPZ-6438, SU-DHL-6",[1],S
same,"combination effect with EPZ-6438, Farage",[7],S
same,"combination effect with EPZ-6438, WSU-DLCL2",[2],S
same,"combination effect with EPZ-6438, SU-DHL-10",[8],S
same,"combination effect with EPZ-6438, TMD8",[10],S
same,"combination effect with EPZ-6438, OCI-LY7",[11],S
same,"combination effect with EPZ-6438, KARPAS-422",[5],S
same,"combination effect with EPZ-6438, SUDHL5",[12],S
same,"combination effect with EPZ-6438, OCI-LY3",[13],S
CC[C@]1(O)C[C@H]2CN(CCc3c([nH]c4ccccc34)[C@@](C(=O)OC)(c3cc4c(cc3OC)N(C=O)[C@H]3[C@@](O)(C(=O)OC)[C@H](OC(C)=O)[C@]5(CC)C=CCN6CC[C@]43[C@@H]65)C2)C1 [Vincristine],"combination effect with EPZ-6438, SU-DHL-6 (mutant EZH2 GC)",[1]; Table 3,Additive
same,"combination effect with EPZ-6438, WSU-DLCL2 (mutant EZH2 GC)","[2]; Table 3, 4+3 model",Additive
same,"combination effect with EPZ-6438, SU-DHL-10 (mutant EZH2 GC)",[8]; Table 3,Additive
same,"combination effect with EPZ-6438, Toledo (WT EZH2 ABC)",[15],No effect
same,"combination effect with EPZ-6438, DOHH2 (WT EZH2 GC)",[14]; Table 3,No effect
OG-L002,"combination effect with EPZ-6438, SUDHL2",[4],ANTAG.
